Measured values from US11325899B2, “Benzofurane and benzothiophene derivatives as PGE2 receptor modulators” (IDORSIA PHARMACEUTICALS LTD, priority 2017, dated 2022).

Experiments:
Format in all cases: cell-based
[1] = target: T1, PTGER2 (EP2) (Homo sapiens, UniProt P43116); experiment: hEP2 b-arrestin assay (PathHunter HEK 293 PTGER2 b-arrestin cells); conditions: antagonistic activity, beta-arrestin assay; read-out: hEP2 b-arr IC50
T1 construct: host or cells: HEK 293 (PathHunter PTGER2 b-arrestin cell line)
T1 sequence (P43116 whole entry): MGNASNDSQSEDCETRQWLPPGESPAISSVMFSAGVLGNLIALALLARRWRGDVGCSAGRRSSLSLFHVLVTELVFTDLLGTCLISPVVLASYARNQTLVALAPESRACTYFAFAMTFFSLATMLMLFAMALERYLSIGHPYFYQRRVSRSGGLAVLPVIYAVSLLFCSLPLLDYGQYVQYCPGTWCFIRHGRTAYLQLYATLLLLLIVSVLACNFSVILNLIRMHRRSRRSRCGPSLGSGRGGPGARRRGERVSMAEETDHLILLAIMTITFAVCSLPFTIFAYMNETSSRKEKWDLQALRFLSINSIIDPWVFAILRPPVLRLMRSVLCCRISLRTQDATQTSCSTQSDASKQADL
Summary of the method: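 Antagonism measured as inhibition of PGE2-driven β-arrestin 2 recruitment (enzyme fragment complementation, luminescence) in engineered HEK293 EP2 cells. Agonist: 5 μM PGE2, ~EC80, 120 min at 37 °C after 15 min compound preincubation; test range 10 μM-2 nM or 1 μM-0.2 nM, duplicates, IC50 fitted.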

[2] = target: T2, EP2 receptor (Homo sapiens, UniProt P43116); experiment: hEP2 cAMP assay (SF295 glioblastoma cells, HTRF cAMP, PGE2 stimulation); conditions: antagonistic activity
T2 construct: SF295 glioblastoma cells express high endogenous EP2 and no EP4; host or cells: SF295 glioblastoma cells
T2 sequence (P43116 whole entry): as above
Method: (§1) The antagonistic activities of the compounds of formula (I) on the EP2 and EP4 receptors are also determined in accordance with the following experimental method.
(§2) Human tumor cell lines expressing endogenously either EP4 or EP2 are used and cAMP accumulation in cells upon PGE2 stimulation is monitored. SF295 glioblastoma cells express high endogenous EP2 and no EP4, whereas BT549 breast cancer cells, express high endogenous EP4 levels and very low EP2 levels.
(§3) As a detection method for cAMP the HTRF (homogeneous time resolved fluorescence) Cisbio kit (HTRF cAMP dynamic 2 kit 20′000 tests Cisbio Cat. #62AM4PEC) was used, which is based on a competitive immunoassay using a Cryptate-labeled anti-cAMP antibody and d2-labeled cAMP. Native cAMP produced by cells or unlabeled cAMP (for the standard curve) compete with exogenously added d2-labeled cAMP (acceptor) for binding to monoclonal anti-cAMP-Eu3+ Cryptate (donor). A FRET signal (Fluorescence Resonance Energy Transfer) is obtained only if the labeled anti-cAMP antibody binds the d2 labelled cAMP, thus the specific signal (i.e. energy transfer) is inversely proportional to the concentration of cAMP in the standard or sample.
(§4) The SF295 cells (NCI/No. 0503170) are detached from culture dishes with a cell dissociation buffer (Invitrogen, 13151-014), and collected in growing medium (GM: RPM1640 (Invitrogen 21875)/10% FCS, 1% Penicilin/streptomycin). Cells are counted washed and resuspended in assay buffer (AB; HBSS, 20 mM HEPES, 0.2% BSA; 2 mM IBMX). 4′000 cells in 5 μl of AB are seeded per well of a small volume 384 well plate (black with flat bottom, Greiner 784076).
Stock solutions of test compounds are made at a concentration of 10 mM in DMSO, and serially diluted in DMSO to concentrations required for inhibition dose response curves (tested concentration range 30 μM-0.4 nM; 30 μM-0.015 nM or 1 μM-0.01 nM).
PGE2 (Cayman 14010, stock solution: 75 μM in DMSO) is used as agonist at 75 nM final concentration, corresponding to EC80.
(§5) Two point five microliters of diluted compounds are transferred into the assay plate. Plate is pre-incubated 45 minutes at room temperature. Subsequently, 2.5 microliters of PGE2 (final conc. 75 nM) are transferred into the assay plate. Plate is incubated 30 minutes at room temperature. Five μl of each donor (anti-cAMP cryptate) and acceptor (cAMP-d2) are added and the plate is incubated another hour at room temperature in the dark and then read using a BMG LABTECH PHERAstar reader (Excitation: 337 nm, Emission: 620 and 665 nm).
(§6) The obtained Delta F (fluorescence) values (665 nm/620 nM) are converted into % cAMP values using the measurements of the cAMP calibrator provided in the kit. For each compound concentration the percentage of cAMP compared to DMSO control value as average±STDEV (each concentration is measured in duplicate) is calculated.
(§7) IC50 values and curves are generated with XLfit software (IDBS) using Dose-Response One Site model 203. When compounds were measured multiple times, mean values are given.

[3] = target: T3, EP4 receptor (Homo sapiens, UniProt P35408); experiment: hEP4 cAMP assay (BT549 breast cancer cells, HTRF cAMP, PGE2 stimulation); conditions: antagonistic activity, PGE2 6 nM (EC80)
T3 construct: BT549 breast cancer cells, express high endogenous EP4 levels and very low EP2 levels; host or cells: BT549 breast cancer cells
T3 sequence (P35408 whole entry): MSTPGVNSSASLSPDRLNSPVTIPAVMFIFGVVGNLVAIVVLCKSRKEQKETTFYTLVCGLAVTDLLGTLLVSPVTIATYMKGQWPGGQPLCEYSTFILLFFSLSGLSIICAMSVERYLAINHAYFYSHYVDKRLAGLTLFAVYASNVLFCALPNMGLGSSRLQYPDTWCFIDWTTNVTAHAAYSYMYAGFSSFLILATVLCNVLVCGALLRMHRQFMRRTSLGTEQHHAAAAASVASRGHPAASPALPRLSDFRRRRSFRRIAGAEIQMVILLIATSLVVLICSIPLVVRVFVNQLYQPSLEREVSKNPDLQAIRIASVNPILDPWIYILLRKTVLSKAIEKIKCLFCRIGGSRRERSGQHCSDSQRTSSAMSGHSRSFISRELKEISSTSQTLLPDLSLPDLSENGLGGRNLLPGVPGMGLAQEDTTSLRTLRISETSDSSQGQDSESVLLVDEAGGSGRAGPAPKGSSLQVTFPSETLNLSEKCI
Method: as §1, §2, §3
as §4, with “BT549” for “SF295”, “0507282)” for “0503170)”, “RPMI1640” for “RPM1640”
Stock solutions of test compounds are made at a concentration of 10 mM in DMSO, and serially diluted in DMSO to concentrations required for inhibition dose response curves (tested concentration range 30 μM-0.4 nM; 30 μM-0.015 nM or 1 uM-0.01 nM).
PGE2 (Cayman 14010, stock solution: 6 μM in DMSO) is used as agonist at 6 nM final concentration, corresponding to EC80.
as §5, with “6” for “75”, “(Excitation:337” for “(Excitation: 337”, “Emission:620” for “Emission: 620”
as §6, with “F(fluorescence)” for “F (fluorescence)”
as §7

[4] = target: T4, PTGER4 (EP4) (Homo sapiens, UniProt P35408); experiment: hEP4 b-arrestin assay (PathHunter HEK 293 PTGER4 b-arrestin cells); conditions: antagonistic activity, beta-arrestin assay; read-out: hEP4 b-arr IC50
T4 construct: host or cells: HEK 293 (PathHunter PTGER4 b-arrestin cell line)
T4 sequence (P35408 whole entry): as above
Summary of the method: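 β-Arrestin recruitment to EP4 was read as enzyme-fragment-complementation chemiluminescence in stably transfected HEK 293 cells. After 15 min compound preincubation at 37 °C (ranges 10 μM–2 nM or 1 μM–0.2 nM), cells were stimulated 120 min with PGE2 at 20 nM, its EC80. IC50 values were fitted from duplicates, with repeat measurements averaged.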

Compound | IC50 [1] [µM] | IC50 [2] [µM] | IC50 [3] [µM] | IC50 [4] [µM]
Cc1sc2c(C)cc(F)cc2c1CCNc1cc(-c2cc3ccc(C(=O)O)cc3[nH]2)ncn1 [Example 80, 2-{6-[2-(5-Fluoro-2,7-dimethyl-benzo[b]thiophen-3-yl)-ethylamino]-pyrimidin-4-yl}-1H-indole-6-carboxylic acid] | 0.013 | 0.02 | 0.306 | –
CCOc1cc(-c2cc(NCCc3c(C)sc4c(Cl)cc(F)cc34)ncn2)ccc1CC(=O)O [Example 113, (4-{6-[2-(7-Chloro-5-fluoro-2-methyl-benzo[b]thiophen-3-yl)-ethylamino]-pyrimidin-4-yl}-2-ethoxy-phenyl)-acetic acid] | – | 0.284 | 0.765 | 0.209
CCOc1cc(-c2cc(NCCc3c(C)sc4c(C)cc(F)cc34)ncn2)sc1-c1noc(=O)[nH]1 [Example 159, 3-(3-Ethoxy-5-{6-[2-(5-fluoro-2,7-dimethyl-benzo[b]thiophen-3-yl)-ethylamino]-pyrimidin-4-yl}-thiophen-2-yl)-[1,2,4]oxadiazol-5(4H)-one [tautomeric form: 3-(3-ethoxy-5-(6-((2-(5-fluoro-2,7-dimethylbenzo[b]thiophen-3-yl)ethyl)amino)pyrimidin-4-yl)thiophen-2-yl)-[1,2,4]oxadiazol-5-ol]] | – | 0.011 | 0.005 | 0.003
(4-{6-[2-(4,5-Difluoro-7-methoxy-2-methyl-benzofuran-3-yl)-ethylamino]-pyrimidin-4-yl}-2-ethoxy-phenoxy)-acetic acid [Example 123] | – | 0.359 | 0.219 | 0.142
CCOc1cc(-c2cc(NCCc3c(C)oc4c(Cl)cccc34)ncn2)ccc1CC(=O)O [Example 108, (4-{6-[2-(7-Chloro-2-methyl-benzofuran-3-yl)-ethylamino]-pyrimidin-4-yl}-2-ethoxy-phenyl)-acetic acid] | 0.031 | 0.107 | 0.264 | –
Cc1sc2c(C)cc(F)cc2c1CCNc1cc(-c2ccc(C(=O)O)c(CC(C)C)c2)ncn1 [Example 94, 4-{6-[2-(5-Fluoro-2,7-dimethyl-benzo[b]thiophen-3-yl)-ethylamino]-pyrimidin-4-yl}-2-isobutyl-benzoic acid] | 0.045 | 0.092 | 0.302 | –
CCOc1cc(-c2cc(NCCc3c(C)sc4c(C)ccc(Cl)c34)ncn2)ccc1CC(=O)O [Example 111, (4-{6-[2-(4-Chloro-2,7-dimethyl-benzo[b]thiophen-3-yl)-ethylamino]-pyrimidin-4-yl}-2-ethoxy-phenyl)-acetic acid] | – | 0.561 | 0.433 | 0.197
CCOc1cc(-c2cc(NCCc3c(C)oc4c(C)cc(F)cc34)ncn2)ccc1OCC(=O)O [Example 124, (2-Ethoxy-4-{6-[2-(5-fluoro-2,7-dimethyl-benzofuran-3-yl)-ethylamino]-pyrimidin-4-yl}-phenoxy)-acetic acid] | 0.026 | 0.115 | 0.31 | –
CCOc1cc(-c2cc(NCCc3c(C)oc4c(OC)cc(Cl)cc34)ncn2)ccc1CC(=O)O [Example 106, (4-{6-[2-(5-Chloro-7-methoxy-2-methyl-benzofuran-3-yl)-ethylamino]-pyrimidin-4-yl}-2-ethoxy-phenyl)-acetic acid] | – | 0.396 | 0.247 | 0.159
CCOc1cc(-c2cc(NCCc3c(C)sc4c(C)cc(F)cc34)ncn2)sc1CC(=O)OC [Example 95, (3-Ethoxy-5-{6-[2-(5-fluoro-2,7-dimethyl-benzo[b]thiophen-3-yl)-ethylamino]-pyrimidin-4-yl}-thiophen-2-yl)-acetic acid methyl ester] | – | 0.647 | 0.855 | 0.484
CCCc1cc(-c2cc(NCCc3c(C)sc4c(C)cc(F)cc34)ncn2)cc(F)c1C(=O)O [Example 93, 2-Fluoro-4-{6-[2-(5-fluoro-2,7-dimethyl-benzo[b]thiophen-3-yl)-ethylamino]-pyrimidin-4-yl}-6-propyl-benzoic acid] | 0.036 | 0.035 | 0.362 | –
Cc1sc2c(C)cc(F)cc2c1CCNc1cc(-c2ccc(-c3cc(O)no3)cc2)ncn1 [Example 81, 5-(4-{6-[2-(5-Fluoro-2,7-dimethyl-benzo[b]thiophen-3-yl)-ethylamino]-pyrimidin-4-yl}-phenyl)-isoxazol-3-ol [tautomeric form: 5-(4-(6-((2-(5-fluoro-2,7-dimethylbenzo[b]thiophen-3-yl)ethyl)amino)pyrimidin-4-yl)phenyl)isoxazol-3(2H)-one]] | – | 0.392 | 0.323 | 0.202
CCOc1cc(-c2cc(NCCc3c(C)sc4c(C)cc(F)cc34)ncn2)ccc1NC(=O)C(=O)O [Example 145, N-(2-Ethoxy-4-{6-[2-(5-fluoro-2,7-dimethyl-benzo[b]thiophen-3-yl)-ethylamino]-pyrimidin-4-yl}-phenyl)-oxalamic acid] | 0.013 | 0.076 | 0.271 | –
CCOc1cc(-c2cc(NCCc3c(C)sc4c(Cl)ccc(Cl)c34)ncn2)ccc1CC(=O)O [Example 114, (4-{6-[2-(4,7-Dichloro-2-methyl-benzo[b]thiophen-3-yl)-ethylamino]-pyrimidin-4-yl}-2-ethoxy-phenyl)-acetic acid] | – | 0.477 | 0.781 | 0.246
CCOc1cc(-c2cc(NCCc3c(C#N)sc4c(OC)cccc34)ncn2)sc1C(=O)O [Example 27, 5-{6-[2-(2-Cyano-7-methoxy-benzo[b]thiophen-3-yl)-ethylamino]-pyrimidin-4-yl}-3-ethoxy-thiophene-2-carboxylic acid] | – | 0.011 | 0.004 | 0.002
